Measurements as given in US9408828B2, “(+)-3′-angeloyloxy-4′-keto-3′,4′-dihydroseselin for treating inflammation” (Hong Kong Baptist University, priority 2014, dated 2016).

Columns and labels:
Myeloperoxidase (MPO) = assay: Neutrophil infiltration in colon tissue (MPO assay); type: in vivo, C57BL/6 mice; conditions: DSS-induced colitic mice, Pd-Ib treatment groups
Protocol: Myeloperoxidase (MPO) is an enzyme mainly released by neutrophil, and its activity is directly associated with the severity of inflammation in a given tissue. In this example, MPO activity is measured as described in our previous study. Briefly, the colon tissues kept at −80° C. are weighed and homogenized in 0.5% hexadecyltrimethylammonium bromide 1 mL per 100 mg of colon tissue. The homogenates are centrifuged at 19 000 rpm at 4° C. for 15 min. Aliquots of 80 iL supernatant are mixed with 120 μL potassium phosphate buffer (50 mmol, pH 6.0) with 0.0005% o-dianisidine dihydrochloride and 0.1% hydrogen peroxide. Changes in optical density are measured at 460 nm at room temperature (25° C.). MPO activity is calculated from the rate of optical density changes and one unit of MPO activity is defined as the amount of enzyme present that produced a change in optical density of […] at 25° C. in the final reaction volume. The results are normalized to the wet weight of colon tissue and quantified as units/mg tissue.
Colitis is induced in all groups except the control group. Pd-Ib and sulfasalazine are administered to mice from day 6 to day 12. On day 13, the mice are sacrificed, and MPO activity is determined in colon homogenates. Data are expressed as mean±SEM, n=8 (*p<0.05, **p<0.01, ***p<0.001, compared with DSS model group).

iNOS [1] = assay: Real-time PCR of iNOS mRNA in LPS-stimulated RAW-Blue cells; type: cell-based, murine; conditions: LPS 1 μg/mL, 5, 10, 20 μg/mL, 20 hours
Protocol: (§1) After macrophages are treated with 1 μg/mL of LPS in absence or presence various concentrations of Pd-Ib (5, 10, 20 μg/mL) for 20 hours, the mRNA levels of iNOS (A), TNF-α (B) and IL-1β (C) are determined by real time PCR, while the production of NO (D) is determined by Griess reagent. Data are derived from three independent experiments and presented as mean±SEM, “con” stands for the vehicle control group. ^#Compared with control group. *P<0.05, **P<0.01 and ***P<0.001 are compared with LPS-alone group.
(§2) Raw-Blue cells are plated at 20×10^5 cells/well in 12-well plate. After 24 hours of incubation, cells are pretreated with various concentrations (5-20 μg/mL) of Pd-Ib for 2 hours, followed by co-culturing with LPS (1 μg/mL) for 20 hours. Total RNA of Raw-Blue cells is extracted by Trizol reagent. Two micrograms (2 μg) of total RNA are reverse-transcribed with RT master mix to obtain cDNA. Real-time PCR is performed in a ViiA7 real-time PCR instrument (Applied Biosystems, Life Technologies, CA, USA) with the SYBR Green kit. A melting curve analysis is carried out after amplification to verify the accuracy of the amplicon. The comparative cycle of threshold (ΔΔCT) method of relative quantification is used to determine the fold-change in expression. Primer sequences for mRNA analysis of IL-1β, TNF-α, iNOS and β-Actin are described in Table 1.

IL-1β = assay: Real-time PCR of IL-1β mRNA in LPS-stimulated RAW-Blue cells; type: cell-based, murine; conditions: LPS 1 μg/mL, 5, 10, 20 μg/mL, 20 hours
Protocol: as §1, §2

NF-κB p65 = assay: Immunofluorescence staining of NF-κB nuclear translocation; type: cell-based, murine; conditions: 5-20 μg/mL pretreatment 2 hours, LPS 1 μg/mL 20 hours
Protocol: Data are derived from three independent experiments. Original magnification, 40×.
Raw-Blue cells are cultured (20×10^4 cells/well) on glass coverslips and incubated for 24 hours. Cells are pretreated with various concentrations (5-20 μg/mL) of Pd-Ib for 2 hours. Then treated with LPS (1 μg/mL) for 20 hours. Subsequently, the coverslips are rinsed twice with PBS, and cells are fixed in 4% paraformaldehyde (PFA) in PBS at room temperature for 15 minutes. Cellular and nuclear membranes of the macrophages are permeabilized by treatment with 3% Triton X-100 in PBS for 15 minutes. After being blocked with 3% bovine serum albumin (BSA) in PBS for 1 hour, the cells is incubated with primary antibody in 3% BSA/PBS (1:500 dilution) at 4° C. overnight. After washing with PBS, the cells are incubated with the red-conjugated secondary antibody (1:500 dilution) in 3% BSA/PBS at room temperature for 1 hour and finally washed again for three time with PBS. Then, counter-staining is performed with DAPI (1:1,000 dilution) in 3% BSA/PBS nucleus with for 10 minutes. The cells are washed for three times with PBS, and then anti-fade mounting medium is added. Samples are observed under a fluorescence microscope.

iNOS [2] = assay: Western blot of iNOS protein in LPS-stimulated RAW-Blue cells; type: cell-based, murine; conditions: LPS 1 μg/mL, 5, 10, 20 μg/mL, 20 h
Protocol: Data are derived from three independent experiments and presented as mean±SEM. ^#Compared with control group. *P<0.05, **P<0.01 and ***P<0.001 are compared with LPS-alone group.
After Raw-Blue cells are treated with LPS and Pd-Ib, whole cell extract is prepared with lysis buffer [1% Triton X-100, 0.1% SDS, 0.5% deoxycholate, 1 mM EDTA, 20 mM Tris (pH 7.4), 150 mM NaCl, 10 mM NaF, 1 mM Na3VO4, 0.1 mM phenylmethylsulfonyl fluoride and one protease inhibitor cocktail tablet (Roche, USA)]. Total protein concentration is measured using a protein assay kit, followed by centrifugation at 13,500 rpm for 15 minutes at 4° C., then 10-25 μg of protein from the supernatants is then separated on 10% sodium dodecylsulphate-polyacrylamide gel (SDS-PAGE) and transferred on to polyvinylidene difluoride membranes. After blocking with 5% skim milk powder in Tris-buffered saline-Tween (TBST; 50 mM Tris, 150 mM NaCl, pH 7.4; 0.01% Tween-20) for 1 hour at room temperature, the membrane is then incubated with primary antibody (1:5,000 dilution) in 5% skim milk in TBST overnight at 4° C. […] The membrane is rewashed (TBST; 3×10 min), and the immune-reactive proteins are detected by enhanced chemiluminescence using X-ray film and ECL reagent. The protein bands are quantified by measuring the relative intensity compared to the control using Image J Software (version 4.1.7, NIH, USA).

SMILES: C/C=C(\C)C(=O)OC1C(=O)c2c(ccc3ccc(=O)oc23)OC1(C)C (single isomer, unassigned; (+)) [Pd-Ib, (+)-3′-Angeloyloxy-4′-keto-3′,4′-dihydroseselin]
- MPO activity in colon (Myeloperoxidase (MPO)): suppresses MPO activity significantly
- mRNA level of iNOS (iNOS [1]): remarkedly inhibits the mRNA level of iNOS in a dose-dependent manner
- mRNA expression of IL-1β (IL-1β): inhibit the mRNA expressions of TNF-α and IL-1β in a dose-dependent manner
- p65 nuclear translocation (NF-κB p65): significantly inhibits the p65 nuclear translocation
- iNOS protein level (iNOS [2]): strongly down-regulates
